Experimental data: patent US20080194585A1, “Fungicidal Pyrazine Derivatives” (priority 2005, published 2008)
Marks after values point to notes of the source that are not given here.

Experiments:
Plasmopara viticola = experiment: Test D: grape downy mildew, spray after inoculation of grape seedlings; type: in vivo
Source text: Upon removal, disease ratings were made. […] A dash (-) indicates no test results.

Phytophthora infestans = experiment: whole plant or invertebrate; type: in vivo
Septoria tritici = experiment: Test J: wheat leaf blotch, preventive spray on wheat seedlings; type: in vivo
Source text: A dash (-) indicates no test results.

fusarium graminearium = experiment: Test I: wheat head scab, preventive spray on wheat seedlings
Experimental: (the causal agent of wheat head scab) and incubated in a saturated atmosphere at 20° C. for 72 h, and then moved to a growth chamber at 22° C. for 5 days, after which disease ratings were made.

[1] = system: Puccinia recondita f. sp. tritici; experiment: Test K: wheat leaf rust, preventive spray on wheat seedlings; details: 40 ppm (*)
Botrytis cinerea = experiment: Test E: tomato botrytis, preventive spray on tomato seedlings; details: 40 ppm (*)
Septoria nodorum = experiment: Test H: wheat glum blotch, preventive spray on wheat seedlings; details: 40 ppm (*)
Experimental: (the causal agent of wheat glum blotch) and incubated in a saturated atmosphere at 20° C. for 48 h, and then moved to a growth chamber at 22° C. for 5 days, after which disease ratings were made.

[2] = system: Erysiphe graminis f. sp. tritici; experiment: Test L: wheat powdery mildew, preventive spray on wheat seedlings; details: 40 ppm (*)
Sclerotinia sclerotiorum = experiment: Test C: cucumber white mold, preventive spray on cucumber seedlings
Pythium aphanidermatum = experiment: Test A: bluegrass pythium blight, preventive spray on bluegrass seedlings
Rhizoctonia oryzae = experiment: Test G: turf brown patch, preventive spray on creeping bent grass seedlings; details: 40 ppm (*)
Experimental: (the causal agent of turf brown patch) and incubated in a saturated atmosphere at 27° C. for 24 h, and then moved to a growth chamber at 27° C. for 5 days, after which disease ratings were made.

[3] = system: Colletotrichum orbiculare; experiment: Test B: cucumber Colletotrichum anthracnose, preventive spray on cucumber seedlings; details: 40 ppm (*)

SMILES	Test D disease control rating (Plasmopara viticola; 200 ppm) [%]	Test F disease control rating (Phytophthora infestans; 200 ppm) [%]	Test J disease control rating (Septoria tritici; 40 ppm (*))	Test I disease control rating (fusarium graminearium; 200 ppm) [%]	Test K disease control rating [1]	Test E disease control rating (Botrytis cinerea)	Test H disease control rating (Septoria nodorum)	Test L disease control rating [2]	Test C disease control rating (Sclerotinia sclerotiorum; 200 ppm) [%]	Test A disease control rating (Pythium aphanidermatum; 200 ppm) [%]	Test G disease control rating (Rhizoctonia oryzae)	Test B disease control rating [3]	Test D disease control rating (Plasmopara viticola; 40 ppm (*))	Test F disease control rating (Phytophthora infestans; 40 ppm (*))	Test I disease control rating (fusarium graminearium; 40 ppm (*))	Test C disease control rating (Sclerotinia sclerotiorum; 40 ppm (*))	Test A disease control rating (Pythium aphanidermatum; 40 ppm (*))	Test J disease control rating (Septoria tritici; 200 ppm) [%]
CC(C)Cn1c(-c2c(Cl)ccc(Cl)c2Cl)c(Cl)nc(-n2cncn2)c1=O [compound 120]	0	0	91* %	86	55* %	99* %	64* %	0* %	93	0	0* %	0* %						
COC(=O)Cn1c(-c2c(F)cccc2F)c(Cl)nc(-n2cccn2)c1=O [compound 122]			7* %		28* %	49* %	0* %	0* %			16* %	0* %	58* %	0* %	0* %	0* %	0* %	
COC(=O)Cn1c(-c2c(F)cccc2F)c(Cl)nc(-n2cncn2)c1=O [compound 123]			19* %		0* %	0* %	0* %	0* %			0* %	0* %	0* %	0* %	0* %	0* %	0* %	
O=c1c(-n2cccn2)nc(Cl)c(-c2c(F)cccc2F)n1CCCl [compound 124]			100* %		100* %	99* %	100* %	0* %			21* %	0* %	0* %	0* %	0* %	0* %	0* %	
O=c1c(-n2cncn2)nc(Cl)c(-c2c(F)cccc2F)n1CCCl [compound 125]			71* %		55* %	0* %	0* %	0* %			0* %	0* %	0* %	0* %	0* %	0* %	0* %	
CS(=O)(=O)CCn1c(-c2c(F)cccc2F)c(Cl)nc(-n2cccn2)c1=O [compound 126]			19* %		0* %	0* %	0* %	0* %			0* %	0* %	0* %	0* %	0* %	0* %	0* %	
CS(=O)(=O)CCn1c(-c2c(F)cccc2F)c(Cl)nc(-n2cncn2)c1=O [compound 127]					0* %	0* %	0* %	0* %			0* %	0* %	0* %	0* %	0* %	0* %	0* %	16
CC(C)Cn1c(Cc2ccccc2)c(Cl)nc(-n2cncn2)c1=O [compound 128]			0* %		0* %	0* %	0* %	0* %			0* %	0* %	0* %	0* %	0* %	0* %	0* %	
CC(C)Cn1c(-c2cccc3ccccc23)c(Cl)nc(-n2cncn2)c1=O [compound 129]			19* %		0* %	0* %	0* %	0* %			0* %	0* %	0* %	0* %	0* %	0* %	0* %	
CC(C)Cn1c(Cc2ccccc2)c(Cl)nc(-n2cccn2)c1=O [compound 130]			16* %		0* %	0* %	0* %	0* %			0* %	0* %	0* %	0* %	0* %	0* %	0* %	
CC(C)Cn1c(-c2cccc3ccccc23)c(Cl)nc(-n2cccn2)c1=O [compound 131]			52* %		0* %	0* %	0* %	0* %			0* %	0* %	0* %	0* %	0* %	0* %	0* %	
CC(C)Cn1c(C(C)c2ccccc2)c(Cl)nc(-n2cccn2)c1=O (stereo not drawn) [compound 132]			9* %		0* %	0* %	0* %	0* %			0* %	0* %	0* %	0* %	0* %	0* %	0* %	
CC(C)Cn1c(C(C)c2ccccc2)c(Cl)nc(-n2cncn2)c1=O (stereo not drawn) [compound 133]			23* %		0* %	0* %	0* %	0* %			0* %	0* %	0* %	0* %	0* %	0* %	0* %	
